Measured values published in US20150291532A1, “AMORPHOUS FORM OF QUINOLINE DERIVATIVE, AND METHOD FOR PRODUCING SAME” (Eisai R&D Management Co., Ltd., priority 2012, published 2015).

Legend:
[1] = Evaluation of solubility: dissolved concentration by the Paddle method, HPLC; format: physicochemical; settings: general statement of advantageous effect
[2] = as above; format: physicochemical; settings: approx. 40 mg in 100 mL fasting artificial intestinal juice pH 6.5, 37° C., 50 rpm; for Concentration of compound A at sampling time 5 minute: 5 min; for Concentration of compound A at sampling time 10 minute: 10 min; for Concentration of compound A at sampling time 20 minute: 20 min; for Concentration of compound A at sampling time 30 minute: 30 min; for Concentration of compound A at sampling time 45 minute: 45 min; for Concentration of compound A at sampling time 60 minute: 60 min
Description: The dissolved concentration of amorphous compound A obtained in Example 1 was measured by the Paddle method. Approximately 40 mg of amorphous compound A was loaded into an equipment for the elution test, and 500 μL of solution was sampled at 5, 10, 20, 30, 45 and 60 minutes each. The concentration of compound A in the solution was measured by HPLC. As a comparative control there was used B-form crystals of 4-(3-chloro-4-(cyclopropylaminocarbonyl)aminophenoxy)-7-methoxy-6-quinolinecarboxamide (see Patent Literature 2). Solvent: 100 mL of fasting artificial intestinal juice (buffer with pH 6.5, containing 29 mM NaH2PO4, 100 mM KCl, 7.5 mM lecithin, and 30 mM sodium taurocholate) Temperature: 37° C. Paddle rotational speed: 50 rpm Column: YMC-UltraHT C18 (product of YMC Inc., inner diameter: 2.0 mm, column length: 50 mm, particle size: 2 μm) Column temperature: 40° C. (using a column oven) Flow rate: 0.42 mL/min Mobile phase: Solution A and solution B were used for elution with the linear gradient shown in Table 1. Solution A H2O: CH3CN:HClO4*=990:10:1 (V/V/V) Solution B CH3CN:H2O:HClO4*=900:100:1 (V/V/V) (*: 70% aqueous solution) Injection volume: 10 μL Detection: Ultraviolet absorptiometer (measuring wavelength: 252 nm). Autosampler temperature: 10° C.

| Compound | Solubility in water [1] | Concentration of compound A at sampling time 5 minute [2] [ng/mL] | Concentration of compound A at sampling time 10 minute [2] [ng/mL] | Concentration of compound A at sampling time 20 minute [2] [ng/mL] | Concentration of compound A at sampling time 30 minute [2] [ng/mL] | Concentration of compound A at sampling time 45 minute [2] [ng/mL] | Concentration of compound A at sampling time 60 minute [2] [ng/mL] |
| --- | --- | --- | --- | --- | --- | --- | --- |
| COc1cc2nccc(Oc3ccc(NC(=O)NC4CC4)c(Cl)c3)c2cc1C(N)=O [Amorphous A, 4-(3-chloro-4-(cyclopropylaminocarbonyl)aminophenoxy)-7-methoxy-6-quinolinecarboxamide] | excellent solubility in water | 4900 | 5360 | 5630 | 5520 | 5410 | 5310 |
| COc1cc2nccc(Oc3ccc(NC(=O)NC4CC4)c(Cl)c3)c2cc1C(N)=O [Crystalline B, 4-(3-chloro-4-(cyclopropylaminocarbonyl)aminophenoxy)-7-methoxy-6-quinolinecarboxamide, reference compound] |  | 810 | 870 | 930 | 940 | 980 | 1000 |
